# Laboratory results as given in patent publication US12678416B2, “L-triiodothyronine (T3) for use in limiting microvascular obstruction” (UNI-PHARMA KLEON TSETIS PHARMACEUTICAL LABORATORIES S.A., priority 2019, dated 2026).
# Entries after “also recorded” stand apart in the source; their conditions may differ.
# Assays:
# [1] = test system: patients after acute myocardial infarction; conditions: long-term administration of high doses; cited from earlier work
# isolated rat heart = conditions: ex vivo, cited from earlier work; for myocardial injury as indicated by apoptosis: at the onset of reperfusion
# [2] = test system: reperfused STEMI patients; conditions: high-dose intracoronary, cohort of 247 reperfused STEMI patients; cited from earlier work
# [3] = Thy-REPAIR phase II study: T3 levels in serum during hospitalization; assay type: in vivo, patients
# Protocol: (§1) The potential effect of early administration of high dose TH (acute treatment) after an index event has been also investigated in experimental models of ischemia-reperfusion (I/R) using isolated rat heart preparations. […] Thy-REPAIR explores the effects of high-dose T3 treatment intravenously starting immediately after reperfusion and continuing for 48 hours in patients with anterior or anterolateral STEMI undergoing primary PCI. This is a double-blind randomized trial. The primary end point of this study is recovery of myocardial function after 6 months of the index event as this is assessed by Cardiac Magnetic Resonance (CMR) at discharge and at 6 months after acute myocardial infarction. This study also explores the potential effects of T3 treatment on infarct size and cardiac remodeling by assessing changes in LV volumes and geometry.
# (§2) The dose administered is 0.8 μg/kg intravenously bolus starting immediately after successful opening of the culprit vessel has been established in the hemodynamic lab and followed by an infusion of 0.113 μg/kg/h intravenously for 48 hours.
# STEMI patients [4] = assay: Thy-REPAIR: heart rate during hospitalization; assay type: in vivo; conditions: during the first 3 days, high dose T3 vs placebo
# Protocol: as §1, §2
# Despite the possible increase in oxygen consumption, no increase in infarct size (IS) is found with T3 in contrast to the current belief (FIG. 3).
# [5] = test system: STEMI patients after PPCI; assay: Thy-REPAIR: contrast-enhanced cardiac magnetic resonance (MVO, infarct size, LV function); assay type: in vivo
# Protocol: as §1
# (§3) The invention in particular concerns L-triiodothyronine for use in the treatment as set forth in the appending claims. In the broader sense, the present invention concerns L-triiodothyronine for use in the treatment of microvascular obstruction. Treatment of MVO in this context relates to the lessening of microvascular obstruction in comparison to patients which were not supplied with T3. MVO may be determined on the basis of both Cardiac Magnetic Resonance (CMR) imaging, being performed 7-12 days following primary percutaneous coronary intervention (PPCI) and restoration of ST elevation in electrocardiogram (ECG). Infarct size and ejection fraction was measured by CMR. Infarct size was also assessed enzymatically by measuring levels of troponin in blood.
# as §2
# Actually, cardiac magnetic resonance with gadolinium represents the gold-standard method for detection of MVO in patients with STEMI. MVO can be quantified in each patient as the percentage of left ventricular (LV) myocardium that is not adequately perfused despite restoration of blood flow in the occluded large coronary artery.
# The incidence of MVO was assessed using the value of 0.47% as a cut-off point for patients with large and small extent of MVO as previously described. This analysis was additionally performed and provides a strong evidence about the T3 effect on MVO. In the placebo group (n=9), a large extent of MVO was found in 56% of patients consistent with previous published reports in the literature.
# [6] = test system: STEMI patients after PPCI; assay: Thy-REPAIR: ST resolution in electrocardiograms on admission and after PPCI; assay type: in vivo; conditions: placebo 34%, p=0.05
# From the text: as §3, §2
# These unexpected findings concerning MVO were also supported by other measurements. Changes in ST elevation in electrocardiograms before and after PPCI measured as ST restoration (%) are closely correlated with the extent of MVO (FIG. 6).
# STEMI patients [7] = assay: Thy-REPAIR: troponin levels in blood over time; assay type: in vivo; conditions: T3 vs placebo groups
# From the text: as §3, §2
# Troponin levels in blood over time are mainly a measure of myocardial injury. According to the present invention, troponin levels are similar between T3 and placebo groups indicating a similar infarct size in accordance with CMR data. Thus, it seems that the effect of T3 on MVO is independent from infarct size. (FIG. 8).
# STEMI patients [8] = assay: Thy-REPAIR: left ventricular ejection fraction by echocardiography; assay type: in vivo; conditions: early and late after the index event, T3 vs placebo
# Protocol: FIG. 12: Left ventricular ejection fraction assessed by echocardiography at different time points in STEMI patients treated with placebo and T3
# as §2
# [9] = test system: patients with STEMI and low serum FT3 levels; conditions: oral T3 for 6 months, cited from earlier work
structure (smiles),measurement,setting,value
N[C@H](Cc1cc(I)c(Oc2cc(I)c(O)c(I)c2)c(I)c1)C(=O)O [D-thyroxine],mortality,[1],increased
"N[C@@H](Cc1cc(I)c(Oc2cc(I)c(O)c(I)c2)c(I)c1)C(=O)O [T4, L-thyroxine]",myocardial injury as indicated by apoptosis,isolated rat heart,no effect
Nc1ncnc2c1ncn2[C@@H]1O[C@H](CO)[C@@H](O)[C@H]1O [adenosine],MVO and MI size,[2],failed to reduce
"N[C@@H](Cc1cc(I)c(Oc2ccc(O)c(I)c2)c(I)c1)C(=O)O [T3, L-triiodothyronine]",T3 levels in serum relative to normal range,[3]; at discharge (7th day),return to normal
same,T3 levels in serum relative to normal range,[3]; for 72 hours,far above normal range
same,concentration at 24 h,"[3]; human, serum, at 24 hours, 0.8 μg/kg iv bolus then 0.113 μg/kg/h iv for 48 hours, placebo 0.79 (0.06), p<0.01",5.5 ng/mL
same,concentration at 48 h,"[3]; human, serum, at 48 hours, 0.8 μg/kg iv bolus then 0.113 μg/kg/h iv for 48 hours, placebo 0.76 (0.06), p<0.01",4.5 ng/mL
same,heart rate,STEMI patients [4],non-significant increase
same,extent of mean microvascular obstruction,"[5]; CMR at discharge (7-12 days after the event), T3 vs placebo",less
same,infarct size (IS) by CMR,"[5]; T3 vs placebo, at discharge",no increase; also recorded: similar
same,cardiac function by CMR,"[5]; at 6 months, T3 vs placebo",improvement
same,cardiac function,[5]; at discharge and at 6 months,improved
same,"myocardial function (EF %, LVEDVi and end-systolic volumes by CMR)","[5]; at discharge, T3 vs placebo",improved
same,recovery of function (ejection fraction at 6 months) versus myocardial injury (infarct size by CMR),[5]; correlation in T3 group,independent
same,patients with a large extent of MVO,"[5]; cut-off 0.47%, T3 group n=12, placebo (n=9) 56%, p=0.05",25%
same,mean ST resolution after PPCI,[6],54%
same,troponin levels in blood over time,STEMI patients [7],similar
same,LV ejection fraction by echocardiography,STEMI patients [8],improvement
same,regional cardiac dysfunction,"[9]; commenced 72 h after onset of STEMI, max 15 μg/m^2/day, 37 patients",effective in reducing
same,safety of T3 replacement therapy,[9]; commenced 72 h after onset of STEMI,safe
same,left ventricular ejection fraction and myocardial infarct size by cardiac MRI,[9],did not show any benefit
same,myocardial injury as indicated by apoptosis,isolated rat heart,less
same,post-ischemic recovery of function,isolated rat heart; high dose at the onset of reperfusion,enhanced
